# Measured values from patent US20210161131A1, “cis-p-Menthane-1,8-Di-secondary Amine Compounds as well as Their Preparation Methods and Application in Weed Control” (RESEARCH INSTITUTE OF FORESTRY NEW TECHNOLOGY, CHINESE …, priority 2019, published 2021).
# Tested on: barnyard grass seeds
# Experiment: Petri dish seed germination method: inhibition of root and stem growth of barnyard grass
# Format: in vivo
# Settings: 96 hours incubation
# Method: (§1) Step 2: Accurately weigh 1 mmol cis-p-menthane-1,8-di-Schiff base compounds and cis-p-menthane-1,8-di-secondary amine compounds respectively, dissolve each of them with 0.25 mL DMF, and add a drop of Tween 80 in each resulted solution. After being fully dissolved, each solution is transferred to a 100 mL volumetric flask respectively and then diluted to the mark with distilled water to obtain a solution with a concentration of 10 mmol/L as the mother liquor. The two-fold dilution method is used to prepare diluted solutions with a series of concentrations (the concentrations of DMF and Tween 80 in the diluted solutions are the same as those in the mother liquor).
# (§2) Barnyard grass seeds are placed in a 28° C. incubator and are soaked in an appropriate amount of distilled water for 12 hours there. After the clean water is filtered out, the seeds are then placed in the 28° C. incubator for 24 hours to germinate. Spread 2 pieces of filter paper in each of several Petri dishes, and place 10 barnyard grass seeds with the same size in each dish. Repeat each treatment for three times The dishes are divided into two groups: test dishes and control dishes. Add into each test dish 10 mL of the sample solution with the corresponding concentration of the target compound, and add into each control dish the same amount of the mixture of water, DMF and Tween 80 as the blank control. Add 10 seeds to each of the dishes (both test dishes and control dishes), place them in an artificial climate incubator, and incubate them for 96 hours under a temperature of 28° C., an illumination of 5000 1×, a photoperiod of day:night=16:8 and a relative humidity of 70-80%. The experimental data is processed and analyzed with DPS software to calculate the inhibition rate (y) of cis-p-menthane-1,8-di-secondary amine compounds on the root growth or stem growth of barnyard grass seeds.
# Wherein, y is the inhibition rate of root growth or stem growth (%), x0 is the root length or stem length of the control, and x1 is the root length or stem length of the sample.
# as §1, with “Accurately” for “Step 2: Accurately”, “cis-p-menthane-1,8-bis-(4-chlorophenyl)Schiff” for “cis-p-menthane-1,8-di-Schiff”, “base” for “base compounds”, “cis-p-menthane-1,8-bis-(4-chlorobenzyl)amine” for “cis-p-menthane-1,8-di-secondary amine compounds”, “(5 mmol/L, 2.5 mmol/L, 1.25 mmol/L, 0.625 mmol/L, 0.3125 mmol/L and 0.1563 mmol/L; the” for “(the”
# as §2, with “placed in a 30° C. incubator” for “placed in the 28° C. incubator”, “in each Petri dish,” for “in each of several Petri dishes,”, “each Petri dish, and place” for “several Petri dishes, and place”, “with the above corresponding concentration” for “with the corresponding concentration”, “with DPS software.” for “with DPS software to calculate the inhibition rate (y) of cis-p-menthane-1,8-di-secondary amine compounds on the root growth or stem growth of barnyard grass seeds.”
Compound,inhibition rate on the stem growth of barnyard grass seeds (0.3125 mmol/L),inhibition rate on the root growth of barnyard grass seeds (0.625 mmol/L),inhibition rate on the stem growth of barnyard grass seeds (0.625 mmol/L),inhibition rate on the root growth of barnyard grass seeds (1.25 mmol/L),inhibition rate on the stem growth of barnyard grass seeds (1.25 mmol/L),inhibition rate on the root growth of barnyard grass seeds (2.5 mmol/L),inhibition rate on the stem growth of barnyard grass seeds (2.5 mmol/L),inhibition rate on the root growth of barnyard grass seeds (5 mmol/L),inhibition rate on the stem growth of barnyard grass seeds (5 mmol/L),inhibition rate on the root growth of barnyard grass seeds (0.15625 mmol/L),inhibition rate on the stem growth of barnyard grass seeds (0.15625 mmol/L),inhibition rate on the root growth of barnyard grass seeds (0.3125 mmol/L)
"CC1(N=Cc2ccc(C(F)(F)F)cc2)CCC(C(C)(C)N=Cc2ccc(C(F)(F)F)cc2)CC1 (stereo not drawn) [cis-p-menthane-1,8-bis-(4-trifluoromethylbenzyl)Schiff base, reference compound]",20.6%,0.8%,30.9%,17.5%,14.6%,7.1%,19.5%,48.4%,31.1%,–,–,–
"CC1(NCc2ccc(C(F)(F)F)cc2)CCC(C(C)(C)NCc2ccc(C(F)(F)F)cc2)CC1 (stereo not drawn) [cis-p-menthane-1,8-bis-(4-trifluoromethylbenzyl)amine]",42.2%,82.3%,55.1%,86.1%,67.0%,100.0%,83.4%,100.0%,78.5%,1.0%,11.6%,62.8%
"CC1(NCc2ccc(Br)o2)CCC(C(C)(C)NCc2ccc(Br)o2)CC1 (stereo not drawn) [cis-p-menthane-1,8-bis-(5-bromofuran-2-methyl)amine]",5.6%,54.8%,11.6%,61.5%,30.3%,84.4%,50.5%,90.7%,71.8%,42.2%,10.1%,39.6%
"Cc1ccc(CNC(C)(C)[C@H]2CC[C@@](C)(NCc3ccc(C)o3)CC2)o1 [cis-p-menthane-1,8-bis-(5-methylfuran-2-methyl)amine]",12.5%,24.7%,6.8%,50.3%,17.1%,64.4%,36.5%,95.5%,79.8%,23.1%,7.2%,41.3%
